Consider 30 molecules from patent US20260042769A1, “TRIARYL AGONISTS OF ALPHA-2 ADRENERGIC RECEPTORS” (ALCEPTOR THERAPEUTICS, INC., priority 2023, published 2026).

The EC50 is the concentration needed to bring the measured effect to its halfway point.

SMILES strings stand for the structures.

This test concerns the target T1, human ADRA2B receptor (Homo sapiens, UniProt P18089).
T1 construct: expressed in transfected cells
T1 sequence (P18089 1-450): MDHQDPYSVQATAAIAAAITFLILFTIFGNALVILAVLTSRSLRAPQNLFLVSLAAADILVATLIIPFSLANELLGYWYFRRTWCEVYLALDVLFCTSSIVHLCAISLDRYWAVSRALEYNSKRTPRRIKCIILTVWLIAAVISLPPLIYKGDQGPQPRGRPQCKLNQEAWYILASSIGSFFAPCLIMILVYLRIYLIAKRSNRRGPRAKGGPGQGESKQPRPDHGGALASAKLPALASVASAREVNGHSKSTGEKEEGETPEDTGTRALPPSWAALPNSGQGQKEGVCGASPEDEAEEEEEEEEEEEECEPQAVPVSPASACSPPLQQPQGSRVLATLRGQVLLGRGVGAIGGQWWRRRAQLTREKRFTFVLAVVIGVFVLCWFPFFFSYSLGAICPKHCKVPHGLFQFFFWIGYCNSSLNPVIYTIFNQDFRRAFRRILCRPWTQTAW
Put plainly: GTPγS agonist assay, ADRA2B receptor. The class given is biochemical. Particulars: read-out: GTPase - Human Alpha2B EC50. The method, boiled down: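 CHO-K1 membranes stably expressing human ADRA2B (5 μg protein) in 20 mM HEPES, 10 mM MgCl2, 200 mM NaCl with GDP, preincubated 10 min at room temperature with compound. Binding reaction 1 h at 37° C; bound label collected on GF/C filters, washed, read by scintillation counting.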
As to `Cc1cccc(C(Cc2cnccn2)c2cnc[nH]2)c1C` (stereo not drawn) [Compound 94, 2-[2-(2,3-dimethylphenyl)-2-(1H-imidazol-4-yl)ethyl] pyrazine], the EC50 lay in the range of 50 to 500 nM.

In the case of `Cc1nc(C)c(C[C@@H](c2c[nH]cn2)c2cccc(C)c2C)s1` [Compound 123, 5-[(R)-2-(4-imidazolyl)-2-(2,3-xylyl)ethyl]-2,4-dimethyl-1,3-thiazole], the EC50 was below 10 nM.

As to `COc1nccc(CC(c2ccc(C(F)(F)F)cc2)c2c[nH]cn2)n1` (stereo not drawn) [Compound 199, 4-{2-(4-imidazolyl)-2-[p-(trifluoromethyl)phenyl]ethyl}-2-methoxypyrimidine], the concentration for a half-maximal effect (EC50) is above 500 nM.

With `FC(F)(F)Oc1ccc(C(Cc2cccnn2)c2c[nH]cn2)cc1` (stereo not drawn) [Compound 220, 3-[2-(4-imidazolyl)-2-(p-trifluoromethoxyphenyl)ethyl]pyridazine], the EC50 is above 500 nM.

For `Cc1cccc([C@H](Cc2cccnc2)c2cnc[nH]2)c1C` [Compound 58, 3-[(2S)-2-(2,3-dimethylphenyl)-2-(1H-imidazol-4-yl)ethyl] pyridine], the EC50 lay in the range of 50 to 500 nM.

In the case of `Cc1nnc(CC(c2c[nH]cn2)c2cccc(C)c2C)o1` (stereo not drawn) [Compound 241, 2-[2-(4-imidazolyl)-2-(2,3-xylyl)ethyl]-5-methyl-1,3,4-oxadiazole], the EC50 fell in the range of 10 to 50 nM.

Consider `Cc1cccc([C@@H](Cc2cscn2)c2c[nH]cn2)c1C` [Compound 119, 4-[(R)-2-(4-imidazolyl)-2-(2,3-xylyl)ethyl]-1,3-thiazole], for which the EC50 was below 10 nM.

As for `Cc1cccc([C@H](Cc2ccc(=O)[nH]n2)c2cnc[nH]2)c1C` [Compound 76, 6-[(2S)-2-(2,3-dimethylphenyl)-2-(1H-imidazol-4-yl)ethyl]-2,3-dihydropyridazin-3-one], the EC50 is above 500 nM.

With `Cc1cccc(C(Cc2cnco2)c2c[nH]cn2)c1C` (stereo not drawn) [Compound 134, 5-[2-(4-imidazolyl)-2-(2,3-xylyl)ethyl]-1,3-oxazole], the EC50 was below 10 nM.

In the case of `COc1cccc(C[C@H](c2cnc[nH]2)c2cccc(C)c2OC)n1` [Compound 9, 2-[(2S)-2-(1H-imidazol-4-yl)-2-(2-methoxy-3-methylphenyl)ethyl]-6-methoxypyridine], the EC50 is below 10 nM.

As for `COc1cccc(C[C@H](c2cnc[nH]2)c2cccc(OC)c2C)n1` [Compound 26, 2-[(2S)-2-(1H-imidazol-4-yl)-2-(3-methoxy-2-methylphenyl)ethyl]-6-methoxypyridine], the EC50 was 50 to 500 nM.

`COc1nccc(CC(c2ccc(Cl)cc2)c2c[nH]cn2)n1` (stereo not drawn) [Compound 159, 4-[2-(p-chlorophenyl)-2-(4-imidazolyl)ethyl]-2-methoxypyrimidine]: the EC50 was in the range of 50 to 500 nM.

Regarding `COc1cccc(CC(c2cnc[nH]2)c2cccc(OC)c2Cl)n1` (stereo not drawn) [Compound 20, 2-[2-(2-chloro-3-methoxyphenyl)-2-(1H-imidazol-4-yl)ethyl]-6-methoxypyridine], the concentration for a half-maximal effect (EC50) is below 10 nM.

In the case of `Cc1cccc(C(Cc2cscn2)c2c[nH]cn2)c1C` (stereo not drawn) [Compound 118, 4-[2-(4-imidazolyl)-2-(2,3-xylyl)ethyl]-1,3-thiazole], the EC50 is 10 to 50 nM.

`Cc1cccc([C@H](Cc2ccccn2)c2cnc[nH]2)c1F` [Compound 39, 2-[(2S)-2-(2-fluoro-3-methylphenyl)-2-(1H-imidazol-4-yl)ethyl] pyridine]: the EC50 was above 500 nM.

Turning to `COc1cccc(CC(c2c[nH]cn2)c2cccc(C)c2Cl)n1` (stereo not drawn) [Compound 28, 2-[2-(2-chloro-3-methylphenyl)-2-(1H-imidazol-4-yl)ethyl]-6-methoxypyridine], the EC50 is below 10 nM.

`COc1nccc(CC(c2c[nH]cn2)c2cccc(C#N)c2C)n1` (stereo not drawn) [Compound 171, 6-[1-(4-imidazolyl)-2-(2-methoxy-4-pyrimidinyl)ethyl]-2-toluonitrile]: the EC50 was 50 to 500 nM.

For the molecule `Cc1cccc([C@H](Cc2ccccn2)c2cnc[nH]2)c1Cl` [Compound 47, 2-[(2S)-2-(2-chloro-3-methylphenyl)-2-(1H-imidazol-4-yl)ethyl] pyridine], the 50% effective concentration (EC50) was above 500 nM.

Turning to `Cc1cccc([C@@H](Cc2cccnc2)c2cnc[nH]2)c1C` [Compound 59, 3-[(2R)-2-(2,3-dimethylphenyl)-2-(1H-imidazol-4-yl)ethyl] pyridine], the EC50 was below 10 nM.

Take `COc1c(C)cccc1[C@@H](Cc1ccccn1)c1cnc[nH]1` [Compound 34, 2-[(2R)-2-(1H-imidazol-4-yl)-2-(2-methoxy-3-methylphenyl)ethyl]pyridine]: the EC50 is above 500 nM.

Consider `COc1cccc(C[C@@H](c2cccc(C)c2)c2cnc[nH]2)n1` [Compound 23, 2-[(2S)-2-(1H-imidazol-4-yl)-2-(3-methylphenyl)ethyl]-6-methoxypyridine], for which the EC50 is below 10 nM.

Turning to `Clc1ccc(C(Cc2cccnn2)c2c[nH]cn2)cc1` (stereo not drawn) [Compound 217, 3-[2-(p-chlorophenyl)-2-(4-imidazolyl)ethyl] pyridazine], the 50% effective concentration (EC50) is above 500 nM.

On to `c1ccc(C[C@@H](c2c[nH]cn2)c2cccc3c2OCC3)nc1` [Compound 44, 2-[(2R)-2-(2,3-dihydro-1-benzofuran-7-yl)-2-(1H-imidazol-4-yl)ethyl] pyridine], for which the EC50 is 10 to 50 nM.

Take `COc1c(C)cccc1C(Cc1ccnc(C)n1)c1c[nH]cn1` (stereo not drawn) [Compound 148, 4-[2-(4-imidazolyl)-2-(2-methoxy-3-tolyl)ethyl]-2-methylpyrimidine]: the EC50 fell in the range of 50 to 500 nM.

For the molecule `FC(F)Oc1cccc([C@@H](Cc2ccccn2)c2cnc[nH]2)c1` [Compound 38, 2-[(2R)-2-[3-(difluoromethoxy)phenyl]-2-(1H-imidazol-4-yl)ethyl]pyridine], the EC50 was above 500 nM.

For `Cc1cccc(C(Cc2ccnn2C)c2c[nH]cn2)c1C` (stereo not drawn) [Compound 127, 5-[2-(4-imidazolyl)-2-(2,3-xylyl)ethyl]-1-methyl-pyrazole], the EC50 is below 10 nM.

For `Cc1cccc(C(Cc2cnn(C(C)C)c2)c2c[nH]cn2)c1C` (stereo not drawn) [Compound 277, 4-[2-(4-imidazolyl)-2-(2,3-xylyl)ethyl]-1-isopropylpyrazole], the EC50 lay within 10 to 50 nM.

As to `Cc1c(Cl)cccc1[C@H](Cc1cccnc1)c1cnc[nH]1` [Compound 62, 3-[(2S)-2-(3-chloro-2-methylphenyl)-2-(1H-imidazol-4-yl)ethyl]pyridine], the EC50 is above 500 nM.

`c1cncc(CC(c2cnc[nH]2)c2cccc3c2CCO3)c1` (stereo not drawn) [Compound 57, 3-[2-(2,3-dihydro-1-benzofuran-4-yl)-2-(1H-imidazol-4-yl)ethyl] pyridine]: the EC50 is above 500 nM.

Take `Cc1cccc([C@@H](Cc2cnco2)c2c[nH]cn2)c1C` [Compound 365, 5-[(R)-2-(4-imidazolyl)-2-(2,3-xylyl)ethyl]-1,3-oxazole]: the EC50 was above 500 nM.
